Measurements: patent US8927587B2, “Chemical compounds” (Pfizer Limited, priority 2012, dated 2015)

Target: T1, hNav1.8 (Homo sapiens, UniProt Q9Y5Y9)
T1 construct: host or cells: HEK cells, stably transfected
Experiment: hNav1.8 whole-cell patch-clamp electrophysiology (conventional or PatchXpress 7000) in stably transfected HEK cells
Format: cell-based
Conditions: estimated IC50 calculated from single point % inhibition; HEK cells expressing hNav1.8; 8 sec prepulse to V1/2, 20 msec step to 0 mV; average of replicates; read-out: Nav1.8 EIC50
Outline: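 Whole-cell voltage clamp at 22-24 °C in HEK cells stably expressing hNav1.8, manually or on PatchXpress. Current evoked by 20 msec step to 0 mV after 8 s prepulse to each cell's inactivation V1/2; single-concentration % inhibition converted to estimated IC50, using only 20-80% inhibition values, averaged over replicates.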

T1 sequence (Q9Y5Y9 whole entry): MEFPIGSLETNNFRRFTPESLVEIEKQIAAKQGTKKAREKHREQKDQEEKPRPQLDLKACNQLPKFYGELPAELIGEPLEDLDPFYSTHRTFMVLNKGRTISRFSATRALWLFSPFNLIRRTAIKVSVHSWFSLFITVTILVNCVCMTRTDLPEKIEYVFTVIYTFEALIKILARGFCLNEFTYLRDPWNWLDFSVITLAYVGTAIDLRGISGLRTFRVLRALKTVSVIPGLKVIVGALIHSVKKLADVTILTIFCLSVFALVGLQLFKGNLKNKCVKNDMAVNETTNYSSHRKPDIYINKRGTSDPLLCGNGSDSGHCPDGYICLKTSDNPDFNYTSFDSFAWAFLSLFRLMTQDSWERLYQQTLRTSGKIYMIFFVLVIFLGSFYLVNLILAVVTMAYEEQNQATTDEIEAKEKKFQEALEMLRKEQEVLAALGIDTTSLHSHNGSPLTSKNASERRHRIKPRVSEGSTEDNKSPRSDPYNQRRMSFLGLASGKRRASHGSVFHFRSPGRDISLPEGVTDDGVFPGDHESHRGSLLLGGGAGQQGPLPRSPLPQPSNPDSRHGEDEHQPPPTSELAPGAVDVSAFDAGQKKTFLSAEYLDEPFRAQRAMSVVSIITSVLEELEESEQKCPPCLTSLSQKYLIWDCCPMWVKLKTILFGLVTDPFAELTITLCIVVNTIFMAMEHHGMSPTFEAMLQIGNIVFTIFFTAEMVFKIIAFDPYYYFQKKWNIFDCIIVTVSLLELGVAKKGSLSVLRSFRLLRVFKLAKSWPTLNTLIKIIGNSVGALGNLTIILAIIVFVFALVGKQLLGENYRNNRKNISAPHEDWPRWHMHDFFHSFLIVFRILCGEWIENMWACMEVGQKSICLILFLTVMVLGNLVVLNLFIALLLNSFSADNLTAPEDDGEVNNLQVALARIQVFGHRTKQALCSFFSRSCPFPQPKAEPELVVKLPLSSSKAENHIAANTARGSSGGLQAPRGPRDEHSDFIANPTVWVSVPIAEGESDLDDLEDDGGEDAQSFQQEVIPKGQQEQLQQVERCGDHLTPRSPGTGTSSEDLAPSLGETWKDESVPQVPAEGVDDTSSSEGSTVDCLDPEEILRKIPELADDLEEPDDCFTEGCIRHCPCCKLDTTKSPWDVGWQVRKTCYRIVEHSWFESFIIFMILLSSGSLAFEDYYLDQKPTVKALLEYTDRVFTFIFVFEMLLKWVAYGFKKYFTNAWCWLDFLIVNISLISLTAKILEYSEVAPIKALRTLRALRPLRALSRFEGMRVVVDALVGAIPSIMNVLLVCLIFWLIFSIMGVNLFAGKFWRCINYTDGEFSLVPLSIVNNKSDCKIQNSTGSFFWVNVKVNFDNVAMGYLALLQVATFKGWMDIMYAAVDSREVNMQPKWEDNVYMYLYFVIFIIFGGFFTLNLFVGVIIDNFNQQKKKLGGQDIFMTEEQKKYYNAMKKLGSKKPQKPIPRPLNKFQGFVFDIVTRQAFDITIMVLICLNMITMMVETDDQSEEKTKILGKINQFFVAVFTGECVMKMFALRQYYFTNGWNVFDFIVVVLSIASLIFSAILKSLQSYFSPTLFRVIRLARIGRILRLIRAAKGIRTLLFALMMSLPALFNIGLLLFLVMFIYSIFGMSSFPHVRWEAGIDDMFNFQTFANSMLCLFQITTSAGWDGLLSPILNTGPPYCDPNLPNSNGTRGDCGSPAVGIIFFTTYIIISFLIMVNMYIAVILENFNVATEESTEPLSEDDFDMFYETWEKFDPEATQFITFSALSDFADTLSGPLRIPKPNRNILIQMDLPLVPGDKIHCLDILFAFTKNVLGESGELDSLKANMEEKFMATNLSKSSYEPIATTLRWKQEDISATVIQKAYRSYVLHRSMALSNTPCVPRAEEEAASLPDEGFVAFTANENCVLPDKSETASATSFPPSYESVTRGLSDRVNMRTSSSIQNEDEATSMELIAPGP

Compound | IC50 [nM]
CO[C@H](C)[C@H](N)c1nc2cc(C3CCCC3)ccc2[nH]1 [Example 145, (1R,2R)-1-(5-Cyclopentyl-1H-benzo[d]imidazol-2-yl)-2-methoxypropan-1-amine] | 284
CCC[C@H](N)c1nc2cc(-c3ccc(C#N)c(F)c3)ccc2[nH]1 [Example 146, 4-{2-[(1S)-1-Aminobutyl]-1H-benzimidazol-5-yl}-2-fluorobenzonitrile] | 27.3
CCC[C@H](N)c1nc2cc(-c3ccc(C#N)cc3)ccc2[nH]1 [Example 147, 4-{2-[(1S)-1-Aminobutyl]-1H-benzimidazol-5-yl}benzonitrile] | 110
CC(C)c1ccc2[nH]c([C@H](N)[C@@H](C)O)nc2c1 [Example 148, (1S,2R)-1-Amino-1-[5-(propan-2-yl)-1H-benzimidazol-2-yl]propan-2-ol] | 1000
C[C@@H](C(=O)N(C)C)[C@H](N)c1nc2cc(C(C)(C)C)ccc2[nH]1 [Example 149, (2R,3S)-3-Amino-3-(5-tert-butyl-1H-benzimidazol-2-yl)-N,N,2-trimethylpropanamide] | 303
CC(N)(CO)c1nc2cc(-c3ccc(C#N)c(F)c3)ccc2[nH]1 (stereo not shown) [Example 150, 4-(2-(2-Amino-1-hydroxypropan-2-yl)-1H-benzo[d]imidazol-5-yl)-2-fluorobenzonitrile] | 134

Second part, the compound after the results:

IC50 [nM] | Compound
45.2 | C[C@H](OC(N)=O)[C@H](N)c1nc2cc(C34CC5CC(CC(C5)C3)C4)ccc2[nH]1 [Example 151, (1R,2S)-1-(5-((3R,5R,7R)-Adamantan-1-yl)-1H-benzo[d]imidazol-2-yl)-1-aminopropan-2-yl carbamate]
101 | NC(=O)C[C@H](N)c1nc2cc(C34CC5CC(CC(C5)C3)C4)ccc2[nH]1 [Example 152, (3S)-3-Amino-3-[5-(tricyclo[3.3.1.1^3,7]dec-1-yl)-1H-benzimidazol-2-yl]propanamide]
96.3 | COC[C@H](N)c1nc2cc(-c3ccc(C#N)cc3)ccc2[nH]1 [Example 153, 4-{2-[(1R)-1-Amino-2-methoxyethyl]-1H-benzimidazol-5-yl}benzonitrile]
108 | C[C@@H](O)[C@H](N)c1cn2cc(-c3ccc(C#N)cc3)ccc2n1 [Example 154, 4-{2-[(1R,2R)-1-Amino-2-hydroxypropyl]imidazo[1,2-a]pyridin-6-yl}benzonitrile]
208 | CC(C)(C)c1ccc2nc([C@@H](N)CO)cn2c1 [Example 155, (2R)-2-Amino-2-(6-tert-butylimidazo[1,2-a]pyridin-2-yl)ethanol]
54.6 | C[C@@H](C(N)=O)[C@H](N)c1cn2cc(-c3ccc(C#N)cc3)ccc2n1 [Example 156, (2R,3S)-3-Amino-3-[6-(4-cyanophenyl)imidazo[1,2-a]pyridin-2-yl]-2-methylpropanamide]
44.5 | C[C@@H](C(N)=O)[C@H](N)c1cn2cc(C(C)(C)C)ccc2n1 [Example 157, (2R,3S)-3-Amino-3-(6-tert-butylimidazo[1,2-a]pyridin-2-yl)-2-methylpropanamide]
